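All cell lines were grown in 96-well plates and treated with compound for 48 hours. GI50: concentration for 50% inhibition of growth. TGI: concentration producing complete growth inhibition.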
Tests used:
Assay in all cases: DTP human tumour cell line panel, 48 h; in the data active means GI50 below about 0.43 µM; inactive means the rest
IGROV1 ovarian = test system: IGROV1 ovarian
SK-MEL-28 melanoma = test system: SK-MEL-28 melanoma
RXF 393 renal = test system: RXF 393 renal
NCI-H23 lung = test system: NCI-H23 lung
SF-539 CNS = test system: SF-539 CNS
SK-OV-3 ovarian = test system: SK-OV-3 ovarian
SNB-75 CNS = test system: SNB-75 CNS
RPMI-8226 leukemia = test system: RPMI-8226 leukemia
COLO 205 colon = test system: COLO 205 colon
MDA-MB-435 = test system: MDA-MB-435
CCRF-CEM leukemia = test system: CCRF-CEM leukemia
CAKI-1 renal = test system: CAKI-1 renal
BT-549 breast = test system: BT-549 breast
ACHN renal = test system: ACHN renal
U251 CNS = test system: U251 CNS
HCT-116 colon = test system: HCT-116 colon
HCC-2998 colon = test system: HCC-2998 colon
HT29 colon = test system: HT29 colon
HOP-62 NSCLC = test system: HOP-62 NSCLC
M14 melanoma = test system: M14 melanoma
UO-31 renal = test system: UO-31 renal
HS 578T breast = test system: HS 578T breast
HL-60(TB) leukemia = test system: HL-60(TB) leukemia
OVCAR-5 ovarian = test system: OVCAR-5 ovarian
SK-MEL-2 melanoma = test system: SK-MEL-2 melanoma
MOLT-4 leukemia = test system: MOLT-4 leukemia
SR leukemia = test system: SR leukemia
A498 renal = test system: A498 renal
SF-268 CNS = test system: SF-268 CNS
NCI/ADR-RES ovarian = test system: NCI/ADR-RES ovarian
T-47D breast = test system: T-47D breast
SNB-19 CNS = test system: SNB-19 CNS
786-0 renal = test system: 786-0 renal
UACC-257 melanoma = test system: UACC-257 melanoma
K-562 leukemia = test system: K-562 leukemia
LOX IMVI melanoma = test system: LOX IMVI melanoma
TK-10 renal = test system: TK-10 renal
KM12 colon = test system: KM12 colon
UACC-62 melanoma = test system: UACC-62 melanoma
OVCAR-4 ovarian = test system: OVCAR-4 ovarian
OVCAR-3 ovarian = test system: OVCAR-3 ovarian
HOP-92 NSCLC = test system: HOP-92 NSCLC
SW-620 colon = test system: SW-620 colon
MCF7 breast = test system: MCF7 breast
OVCAR-8 ovarian = test system: OVCAR-8 ovarian
A549 NSCLC = test system: A549 NSCLC
MDA-MB-231 breast = test system: MDA-MB-231 breast
SN12C renal = test system: SN12C renal
EKVX NSCLC = test system: EKVX NSCLC
DU-145 prostate = test system: DU-145 prostate
HCT-15 colon = test system: HCT-15 colon
SK-MEL-5 melanoma = test system: SK-MEL-5 melanoma
PC-3 prostate = test system: PC-3 prostate
SF-295 CNS = test system: SF-295 CNS
NCI-H460 lung = test system: NCI-H460 lung

CCOC(=O)C(NC(=O)Nc1ccc(C)cc1)(OCC)C(F)(F)F (stereo unspecified)
> 100000 nM: TGI (IGROV1 ovarian) | TGI (SK-MEL-28 melanoma) | TGI (RXF 393 renal) | TGI (NCI-H23 lung) | TGI (SF-539 CNS) | TGI (SK-OV-3 ovarian) | TGI (SNB-75 CNS) | TGI (RPMI-8226 leukemia) | TGI (COLO 205 colon) | TGI (MDA-MB-435) | TGI (CCRF-CEM leukemia) | TGI (CAKI-1 renal) | TGI (BT-549 breast) | TGI (ACHN renal) | TGI (U251 CNS) | TGI (HCT-116 colon) | TGI (HCC-2998 colon) | TGI (HT29 colon) | TGI (HOP-62 NSCLC) | TGI (M14 melanoma) | TGI (UO-31 renal) | TGI (HS 578T breast) | TGI (HL-60(TB) leukemia) | TGI (OVCAR-5 ovarian) | TGI (SK-MEL-2 melanoma) | TGI (MOLT-4 leukemia) | TGI (SR leukemia) | TGI (A498 renal) | TGI (SF-268 CNS) | TGI (NCI/ADR-RES ovarian) | TGI (T-47D breast) | TGI (SNB-19 CNS) | TGI (786-0 renal) | TGI (UACC-257 melanoma) | TGI (K-562 leukemia)

COc1ccc2c(c1)OC1=C(C(=O)OC1)C2c1cc(OC)c2c(c1)OCCO2 (stereo unspecified)
130 nM: TGI (COLO 205 colon)
inactive: GI50 (TK-10 renal) 1540 nM
232 nM: TGI (A498 renal)
> 94600 nM: TGI (MDA-MB-231 breast)
7330 nM: TGI (SK-OV-3 ovarian)
28800 nM: TGI (BT-549 breast)
174 nM: TGI (HL-60(TB) leukemia)
active: GI50 (IGROV1 ovarian) 128 nM | GI50 (SK-MEL-28 melanoma) 51.7 nM | GI50 (LOX IMVI melanoma) 80.2 nM | GI50 (KM12 colon) 46.4 nM | GI50 (NCI-H23 lung) 45.4 nM | GI50 (UACC-62 melanoma) 45.6 nM | GI50 (SF-539 CNS) 48 nM | GI50 (OVCAR-4 ovarian) 173 nM | GI50 (SK-OV-3 ovarian) 71.6 nM | GI50 (SNB-75 CNS) 34.6 nM | GI50 (RPMI-8226 leukemia) 87.1 nM | GI50 (COLO 205 colon) 36.2 nM | GI50 (MDA-MB-435) 21 nM | GI50 (CCRF-CEM leukemia) 64.7 nM | GI50 (OVCAR-3 ovarian) 28.5 nM | GI50 (CAKI-1 renal) 41.1 nM | GI50 (BT-549 breast) 131 nM | GI50 (ACHN renal) 122 nM | GI50 (U251 CNS) 43.3 nM | GI50 (HCT-116 colon) 47.8 nM | GI50 (HCC-2998 colon) 78.1 nM | GI50 (HT29 colon) 36.6 nM | GI50 (HOP-62 NSCLC) 51.2 nM | GI50 (M14 melanoma) 56.6 nM | GI50 (UO-31 renal) 71 nM | GI50 (HOP-92 NSCLC) 62.9 nM | GI50 (SW-620 colon) 39.3 nM | GI50 (MCF7 breast) 35.2 nM | GI50 (HS 578T breast) 36.1 nM | GI50 (HL-60(TB) leukemia) 42 nM | GI50 (OVCAR-5 ovarian) 126 nM | GI50 (OVCAR-8 ovarian) 71.2 nM | GI50 (SK-MEL-2 melanoma) 48.3 nM | GI50 (A549 NSCLC) 60.3 nM | GI50 (MOLT-4 leukemia) 182 nM | GI50 (MDA-MB-231 breast) 156 nM | GI50 (SN12C renal) 97.2 nM | GI50 (EKVX NSCLC) 68.2 nM | GI50 (SR leukemia) 31.8 nM | GI50 (DU-145 prostate) 91.5 nM | GI50 (HCT-15 colon) 53.1 nM | GI50 (A498 renal) 24.9 nM | GI50 (SK-MEL-5 melanoma) 34.7 nM | GI50 (SF-268 CNS) 156 nM | GI50 (NCI/ADR-RES ovarian) 27.9 nM | GI50 (PC-3 prostate) 48.7 nM | GI50 (SNB-19 CNS) 69.7 nM | GI50 (SF-295 CNS) 31.2 nM | GI50 (786-0 renal) 68 nM | GI50 (NCI-H460 lung) 40.8 nM | GI50 (UACC-257 melanoma) 45.8 nM | GI50 (K-562 leukemia) 43.2 nM
> 31900 nM: TGI (HCT-116 colon)
56 nM: TGI (MDA-MB-435)
535 nM: TGI (SK-MEL-5 melanoma)
91.5 nM: TGI (NCI/ADR-RES ovarian)
71.4 nM: TGI (OVCAR-3 ovarian)
> 100000 nM: TGI (IGROV1 ovarian) | TGI (SK-MEL-28 melanoma) | TGI (LOX IMVI melanoma) | TGI (TK-10 renal) | TGI (KM12 colon) | TGI (NCI-H23 lung) | TGI (UACC-62 melanoma) | TGI (SF-539 CNS) | TGI (OVCAR-4 ovarian) | TGI (SNB-75 CNS) | TGI (RPMI-8226 leukemia) | TGI (CAKI-1 renal) | TGI (ACHN renal) | TGI (HOP-62 NSCLC) | TGI (M14 melanoma) | TGI (UO-31 renal) | TGI (HOP-92 NSCLC) | TGI (SW-620 colon) | TGI (MCF7 breast) | TGI (HS 578T breast) | TGI (OVCAR-5 ovarian) | TGI (OVCAR-8 ovarian) | TGI (SK-MEL-2 melanoma) | TGI (A549 NSCLC) | TGI (MOLT-4 leukemia) | TGI (SN12C renal) | TGI (EKVX NSCLC) | TGI (SR leukemia) | TGI (HCT-15 colon) | TGI (SF-268 CNS) | TGI (PC-3 prostate) | TGI (SNB-19 CNS) | TGI (SF-295 CNS) | TGI (NCI-H460 lung) | TGI (UACC-257 melanoma) | TGI (K-562 leukemia)
> 23100 nM: TGI (786-0 renal)

Source: PubChem BioAssay (NCI)
